Where “and” joins values, the source holds several entries; their conditions need not be identical. Equal entries are not always repeated. Where two headings read alike, the source gives them in different places.
Key:
PKA = PKA (Homo sapiens (Human), UniProt P17612); experiment: PKA ADP-Glo kinase enzyme inhibition assay; type: biochemical; details: read-out: PKAIC50
Protocol: We measured ROCK and PKA kinase enzyme activity inhibition by compounds using commercially available ROCK1 (Promega Corporation, cat #V9581), ROCK2 (Promega, cat #V4045), and PKA kinase (Promega, cat #V4247) ADP-Glo™ assay kits. ADP-Glo™ Kinase Assay is a luminescent ADP detection assay that provides a homogeneous method to measure kinase activity by quantifying the amount of ADP produced during a kinase reaction. The assay is performed in two steps. First, after the kinase reaction, an equal volume of ADP-Glo™ Reagent is added to terminate the kinase reaction and deplete the remaining ATP. Second, the Kinase Detection Reagent is added to simultaneously convert ADP to ATP and allow the newly synthesized ATP to be measured using a luciferase/luciferin reaction. The light generated is measured using a luminometer. A complete protocol is included with the kits and is also available at the Promega website. The assay is briefly described below. • 1. Diluted enzyme, substrate, ATP, and compounds (inhibitors) in Kinase Buffer (40 mM Tris, 7.5, 20 mM MgCl2, 0.1 mg/ml BSA, 50 μM DTT). • 2. […]
(§1) Recorded luminescence (Integration time 1 second) using a plate-based luminometer.
Calculated Percent Enzyme Activity: First subtract the signal of the negative control (no enzyme and no inhibitor) from each sample's signal. […]

Caco-2 Permeability = type: in vitro ADME; details: human
Protocol: (§2) Caco-2 Permeability. Experiment was conducted by Absorption Systems. Caco-2 cells (clone C2BBe1) were obtained from American Type Culture Collection (Manassas, VA). Cell monolayers were grown to confluence on collagen-coated, microporous membranes in 12-well assay plates. The permeability assay buffer was Hanks' balanced salt solution containing 10 mM HEPES and 15 mM glucose at a pH of 7.4. The buffer in the receiver chamber also contained 1% bovine serum albumin. The dosing solution concentration was 5 μM of test article in the assay buffer. Cell monolayers were dosed on the apical side (A-to-B) or basolateral side (B-to-A) and incubated at 37° C. with 5% CO2 in a humidified incubator. Samples were taken from the donor and receiver chambers at 120 minutes. Each determination was performed in duplicate. The flux of lucifer yellow was also measured post-experimentally for each monolayer to ensure no damage was inflicted to the cell monolayers during the flux period. […] Permeability calculations were performed as per Absorption Systems protocol, Table 23.

Caco-2 cells = experiment: Caco-2 Permeability; type: in vitro ADME; details: Caco-2
Protocol: as §2

[1] = tested on: MDR1-MDCK cell monolayers; experiment: MDR1-MDCK Permeability; type: in vitro ADME; details: MDR1-MDCK
Protocol: as §2, with “MDR1-MDCK” for “Caco-2”, “MDR1-MDCK cell” for “Caco-2 cells (clone C2BBe1) were obtained from American Type Culture Collection (Manassas, VA). Cell”, “post experimentally” for “post-experimentally”, “24.” for “23.”

MDR1 = experiment: MDR1-MDCK Permeability; type: in vitro ADME; details: dog
Protocol: as §2, with “MDR1-MDCK” for “Caco-2”, “MDR1-MDCK cell” for “Caco-2 cells (clone C2BBe1) were obtained from American Type Culture Collection (Manassas, VA). Cell”, “post experimentally” for “post-experimentally”, “24.” for “23.”

ROCK2 = ROCK2 (Homo sapiens (Human), UniProt O75116); experiment: ROCK2 ADP-Glo kinase enzyme inhibition assay; type: biochemical
Chain of ROCK2 (O75116 whole entry): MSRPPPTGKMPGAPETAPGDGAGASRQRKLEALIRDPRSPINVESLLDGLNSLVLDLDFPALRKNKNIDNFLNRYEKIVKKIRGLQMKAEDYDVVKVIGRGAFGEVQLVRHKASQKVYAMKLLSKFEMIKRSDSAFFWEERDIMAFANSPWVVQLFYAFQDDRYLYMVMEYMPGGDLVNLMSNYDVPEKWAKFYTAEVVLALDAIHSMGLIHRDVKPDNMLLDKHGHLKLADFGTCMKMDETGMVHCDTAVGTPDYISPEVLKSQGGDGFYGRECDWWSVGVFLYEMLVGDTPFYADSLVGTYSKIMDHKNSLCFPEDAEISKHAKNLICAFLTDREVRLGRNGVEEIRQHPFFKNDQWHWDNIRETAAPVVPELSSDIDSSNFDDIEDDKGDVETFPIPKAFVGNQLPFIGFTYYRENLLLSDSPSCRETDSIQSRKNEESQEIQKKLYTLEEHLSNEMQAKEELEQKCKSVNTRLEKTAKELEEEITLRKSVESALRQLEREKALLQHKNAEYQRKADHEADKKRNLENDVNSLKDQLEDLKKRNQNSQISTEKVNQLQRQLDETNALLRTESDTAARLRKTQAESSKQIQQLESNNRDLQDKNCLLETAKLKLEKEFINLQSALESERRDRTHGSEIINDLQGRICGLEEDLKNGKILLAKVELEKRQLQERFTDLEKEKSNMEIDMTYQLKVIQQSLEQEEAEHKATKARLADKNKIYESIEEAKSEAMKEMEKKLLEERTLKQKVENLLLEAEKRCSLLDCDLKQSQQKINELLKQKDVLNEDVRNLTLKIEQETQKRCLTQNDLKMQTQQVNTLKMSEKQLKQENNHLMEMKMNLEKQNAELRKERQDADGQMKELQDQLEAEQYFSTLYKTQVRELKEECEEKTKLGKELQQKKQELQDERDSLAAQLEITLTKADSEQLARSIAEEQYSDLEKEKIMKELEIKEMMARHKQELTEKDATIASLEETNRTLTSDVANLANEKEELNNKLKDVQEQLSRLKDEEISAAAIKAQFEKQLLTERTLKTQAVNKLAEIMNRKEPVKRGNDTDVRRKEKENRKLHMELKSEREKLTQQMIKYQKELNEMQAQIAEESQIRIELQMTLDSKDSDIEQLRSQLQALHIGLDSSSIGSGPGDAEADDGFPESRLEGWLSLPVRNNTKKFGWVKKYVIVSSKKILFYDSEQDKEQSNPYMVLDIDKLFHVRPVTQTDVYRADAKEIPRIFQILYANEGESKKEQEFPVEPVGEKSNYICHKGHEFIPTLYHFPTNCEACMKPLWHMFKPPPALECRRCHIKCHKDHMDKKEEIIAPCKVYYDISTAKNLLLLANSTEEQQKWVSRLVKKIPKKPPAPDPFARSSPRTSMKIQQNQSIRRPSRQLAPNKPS
Protocol: (§3) We measured ROCK and PKA kinase enzyme activity inhibition by compounds using commercially available ROCK1 (Promega Corporation, cat #V9581), ROCK2 (Promega, cat #V4045), and PKA kinase (Promega, cat #V4247) ADP-Glo™ assay kits. ADP-Glo™ Kinase Assay is a luminescent ADP detection assay that provides a homogeneous method to measure kinase activity by quantifying the amount of ADP produced during a kinase reaction. The assay is performed in two steps. First, after the kinase reaction, an equal volume of ADP-Glo™ Reagent is added to terminate the kinase reaction and deplete the remaining ATP. Second, the Kinase Detection Reagent is added to simultaneously convert ADP to ATP and allow the newly synthesized ATP to be measured using a luciferase/luciferin reaction. The light generated is measured using a luminometer. A complete protocol is included with the kits and is also available at the Promega website. The assay is briefly described below. • 1. Diluted enzyme, substrate, ATP, and compounds (inhibitors) in Kinase Buffer (40 mM Tris, 7.5, 20 mM MgCl2, 0.1 mg/ml BSA, 50 μM DTT). • 2. Added 1 μl of inhibitor, 2 μl of enzyme and 2 μl of substrate/ATP mix to the wells of 384-well low volume nonbinding assay plate A series of three-fold dilution of inhibitor was prepared and assayed for each inhibitor. • 3. Incubated at room temperature for 60 minutes. • 4. Added 5 μl of ADP-Glo™ Reagent. • 5. Incubated at room temperature for 60 minutes. • 6. Added 10 μl of Kinase Detection Reagent • 7. Incubated at room temperature for 30 minutes.
as §1
Calculated Percent Enzyme Activity: First subtract the signal of the negative control (no enzyme and no inhibitor) from each sample's signal. Then use the mean relative light units (RLU) values for the 0% kinase activity (neither inhibitor nor enzyme) and the 100% kinase activity (no compound) to calculate the other percent enzyme activities remaining in the presence of the different dilutions of inhibitor.
Inhibitor stock solutions of 10 mM are made in DMSO and stored at −20° C. Dilutions were made in assay buffer immediately before use.

ROCK1 = ROCK1 (Homo sapiens (Human), UniProt Q13464); experiment: ROCK1 ADP-Glo kinase enzyme inhibition assay; type: biochemical
Chain of ROCK1 (Q13464 whole entry): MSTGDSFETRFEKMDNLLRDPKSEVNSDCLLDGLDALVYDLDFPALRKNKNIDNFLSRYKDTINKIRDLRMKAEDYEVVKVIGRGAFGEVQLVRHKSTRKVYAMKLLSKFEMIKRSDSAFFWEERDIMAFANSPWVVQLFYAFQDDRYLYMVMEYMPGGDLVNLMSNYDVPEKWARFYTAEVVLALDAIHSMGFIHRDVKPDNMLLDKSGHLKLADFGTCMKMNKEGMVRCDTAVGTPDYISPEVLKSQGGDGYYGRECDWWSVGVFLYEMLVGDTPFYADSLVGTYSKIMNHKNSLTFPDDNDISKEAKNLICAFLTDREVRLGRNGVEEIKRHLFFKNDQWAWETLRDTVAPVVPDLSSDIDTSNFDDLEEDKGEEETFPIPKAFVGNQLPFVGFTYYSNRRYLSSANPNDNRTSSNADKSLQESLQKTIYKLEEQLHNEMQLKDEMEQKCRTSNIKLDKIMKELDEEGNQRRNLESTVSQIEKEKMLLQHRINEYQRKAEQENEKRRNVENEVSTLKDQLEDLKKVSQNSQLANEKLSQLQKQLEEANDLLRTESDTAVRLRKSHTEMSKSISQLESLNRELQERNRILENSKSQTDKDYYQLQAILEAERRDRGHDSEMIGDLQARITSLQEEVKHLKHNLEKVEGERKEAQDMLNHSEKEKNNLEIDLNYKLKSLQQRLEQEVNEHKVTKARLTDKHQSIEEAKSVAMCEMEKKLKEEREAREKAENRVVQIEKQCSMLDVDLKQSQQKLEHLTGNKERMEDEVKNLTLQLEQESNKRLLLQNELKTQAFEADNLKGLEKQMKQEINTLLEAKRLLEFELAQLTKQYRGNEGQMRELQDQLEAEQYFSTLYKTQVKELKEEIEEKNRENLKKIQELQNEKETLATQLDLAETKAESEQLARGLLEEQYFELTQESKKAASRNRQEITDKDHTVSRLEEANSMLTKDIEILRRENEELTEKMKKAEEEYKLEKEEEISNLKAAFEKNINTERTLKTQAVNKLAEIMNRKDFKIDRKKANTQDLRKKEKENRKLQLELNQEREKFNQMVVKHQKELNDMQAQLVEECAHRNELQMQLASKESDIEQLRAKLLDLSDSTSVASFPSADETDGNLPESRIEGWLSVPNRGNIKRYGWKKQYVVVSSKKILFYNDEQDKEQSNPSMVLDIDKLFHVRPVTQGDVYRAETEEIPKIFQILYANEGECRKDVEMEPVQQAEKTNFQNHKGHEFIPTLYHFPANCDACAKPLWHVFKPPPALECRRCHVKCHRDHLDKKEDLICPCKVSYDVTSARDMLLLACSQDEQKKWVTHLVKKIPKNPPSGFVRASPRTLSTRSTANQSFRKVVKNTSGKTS
Protocol: as §3, §1
Calculated Percent Enzyme Activity: First subtract the signal of the negative control (no enzyme and no inhibitor) from each sample's signal. Then use the mean relative light units (RLU) values for the 0% kinase activity (neither inhibitor nor enzyme) and the 100% kinase activity (no compound) to calculate the other percent enzyme activities remaining in the presence of the different dilutions of inhibitor. […]

`Cl.Cl.NCC(C(=O)Nc1ccc2cnccc2c1)c1ccc(B(O)O)cc1` (centres unmarked) [Compound 10] gave an IC50 (PKA) of 52 nM, an efflux ratio at 120 min, 5 μM (Caco-2 Permeability; Caco-2, pH 7.4) of 2.58 and a recovery at 120 min, 5 μM (Caco-2 Permeability; Caco-2, pH 7.4, A to B) of 108%. For the same compound, the Papp at 120 min, 5 μM (Caco-2 Permeability; Caco-2, pH 7.4, A to B, read-out: Papp Avg) was 0.192 ×10⁻⁶ cm/s, the Papp at 120 min, 5 μM (Caco-2 Permeability; Caco-2, pH 7.4, A to B, read-out: Papp R1) was 0.209 ×10⁻⁶ cm/s and the Papp at 120 min, 5 μM (Caco-2 Permeability; Caco-2, pH 7.4, A to B, read-out: Papp R2) was 0.176 ×10⁻⁶ cm/s. The recovery at 120 min, 5 μM (Caco-2 Permeability; Caco-2, pH 7.4, B to A) was 103%, the Papp at 120 min, 5 μM (Caco-2 Permeability; Caco-2, pH 7.4, B to A, read-out: Papp Avg) was 0.496 ×10⁻⁶ cm/s and the Papp at 120 min, 5 μM (Caco-2 Permeability; Caco-2, pH 7.4, B to A, read-out: Papp R1) was 0.565 ×10⁻⁶ cm/s. The Papp at 120 min, 5 μM (Caco-2 Permeability; Caco-2, pH 7.4, B to A, read-out: Papp R2) was 0.426 ×10⁻⁶ cm/s, the “Absorption Potential Classification” value (Caco-2 cells) was “low (Papp(A to B) < 1 × 10^−6 cm/s: low)” and the “Significant Efflux” value (Caco-2 cells) was “No”. The “Brain Penetration Classification” value [1] was “low”, the recovery at 120 min, 5 μM (MDR1; MDCK-MDR1, pH 7.4, A to B) was 95.5% and the Papp at 120 min, 5 μM (MDR1; MDCK-MDR1, pH 7.4, A to B, read-out: Papp Avg) was under 0.0566 ×10⁻⁶ cm/s. It also gave a Papp at 120 min, 5 μM (MDR1; MDCK-MDR1, pH 7.4, A to B, read-out: Papp R1) of under 0.0566 ×10⁻⁶ cm/s, a Papp at 120 min, 5 μM (MDR1; MDCK-MDR1, pH 7.4, A to B, read-out: Papp R2) of under 0.0566 ×10⁻⁶ cm/s and a recovery at 120 min, 5 μM (MDR1; MDCK-MDR1, pH 7.4, B to A) of 91.1%. For the same compound, the Papp at 120 min, 5 μM (MDR1; MDCK-MDR1, pH 7.4, B to A, read-out: Papp Avg) was under 0.0772 ×10⁻⁶ cm/s, the Papp at 120 min, 5 μM (MDR1; MDCK-MDR1, pH 7.4, B to A, read-out: Papp R2) was under 0.0772 ×10⁻⁶ cm/s and the IC50 (ROCK2; Exp #1, read-out: ROCK2 IC50(Exp #1)) was 27 nM. For the same compound, the IC50 (ROCK2; Exp #2, read-out: ROCK2 IC50(Exp #2)) was 26 nM, the IC50 (ROCK2; Exp #3, read-out: ROCK2 IC50(Exp #3)) was 26 nM and 15 nM and the IC50 (ROCK2; average of two lots of compound 10 and compound 10.2HCl, read-out: average IC50 estimate against ROCK2) was 25 nM. The IC50 (ROCK1; average of two lots of compound 10 and compound 10.2HCl, read-out: average IC50 estimate against ROCK1) was 84 nM and the IC50 (ROCK1; read-out: ROCK1 IC50) was 137 nM and 62 nM.

Reference: patent US12479866B2, “Boron-containing rho kinase inhibitors” (Percipiad, Inc., priority 2019, dated 2025)
